{"source": "patent US11098007B2", "about": "“Crystal of amino acid salt of 3-hydroxyisovaleric acid and production method thereof” (KYOWA HAKKO BIO CO., LTD., priority 2016, dated 2021)", "key": {"surgically stressed rats [1]": {"system": "surgically stressed rats", "test": "Effect on body electrolyte: urinary electrolyte after continuous administration in glucose-electrolytes infusion solution (SOLITA-T No. 3)", "method": "(§1) The solution was continuously administered to surgically stressed rats underwent intestinal tract scratch operation at a normal dose (240 mL/kg/day) for 3 days. On the final day of administration, urine was collected by 24-hour urine collection and measured for the urinary electrolyte concentration."}, "surgically stressed rats [2]": {"system": "surgically stressed rats", "details": "rat, in vivo", "method": "as §1"}, "[3]": {"details": "HMB final concentration 0.42 weight/volume % in SOLITA-T No. 3, 240 mL/kg/day for 3 days, 24-hour urine of the final day"}}, "note": "Like-named read-outs stand apart in the source and are kept apart here.", "data": [{"smiles": "CC(C)(O)CC(=O)O.N=C(N)NCCCC(N)C(=O)O", "note": "(stereo not shown) [Arginine salt nonhydrate of HMB, arginine salt nonhydrate of HMB]", "values": [{"measurement": "Urinary calcium excretion amount", "setting": "surgically stressed rats [1]; [3]", "value": 0.24, "unit": "mg/day"}, {"measurement": "Urinary phosphate excretion amount", "setting": "surgically stressed rats [1]; [3]", "value": 19.1, "unit": "mg/day"}, {"measurement": "Electrolyte abnormality (urinary calcium, urinary phosphate) in combined administration with SOLITA-T No. 3 infusion solution", "setting": "surgically stressed rats [1]; in words", "value": "does not induce the above electrolyte abnormality"}]}, {"smiles": "CC(C)(O)CC(=O)[O-].CC(C)(O)CC(=O)[O-].[Ca+2]", "note": "[Calcium salt hydrate of HMB, calcium salt hydrate of HMB]", "values": [{"measurement": "Electrolyte abnormality (urinary calcium, urinary phosphate) in combined administration with SOLITA-T No. 3 infusion solution", "setting": "surgically stressed rats [2]", "value": "induces the increase in urinary calcium and the decrease in urinary phosphate excretion"}]}]}
